As a reminder, the EC50 is the concentration giving half of the maximal effect. As a reminder, the Emax is the maximal effect, on the per cent scale that the assay sets.

15 compounds from patent US10239887B2, “Positive allosteric modulators of the muscarinic acetylcholine receptor M4” (Vanderbilt University, priority 2016, dated 2019) can be followed below.

In assay [1] the test system is amphetamine-induced hyperlocomotion. The experiment in a line: amphetamine-induced hyperlocomotion in rats. The format is in vivo, male Sprague-Dawley rats. Conditions: 10 mg/kg p.o.; rat; 1 mg/kg amphetamine s.c. As to the method:
d-Amphetamine hemisulfate was obtained from Sigma (St. Louis, Mo.). Salt-correction was used to determine the correct amount of the d-amphetamine hemisulfate form in milligrams to add to sterile water in order to yield a […] solution, which would be dosed at 1 mL/kg body weight of each animal. […] The solutions were formulated so that animals were injected with a volume equal to 10 mL/kg body weight for all compounds. The appropriate amount according to the dosage was mixed in 10% Tween 80 (Sigma) in sterile water. The mixtures were then vortexed and stored in a 39° C. sonication bath for 1 hour, until in a microsuspension (except for the highest dose, which was a suspension).
Male Sprague-Dawley rats weighing 239-300 grams and averaging 265 g (Harlan, Inc., Indianapolis, Ind.) were used. They were housed in the animal care facility certified by the American Association for the Accreditation of Laboratory Animal Care (AALAC) under a 12-hour light/dark cycle (lights on: 6 a.m.; lights off: 6 p.m.) and had free access to food and water. The animals used in this experiment were food-deprived the evening before experimentation for oral dosing of compound/vehicle. The experimental protocols performed during the light cycle were approved by the Institutional Animals Care and Use Committee of Vanderbilt University and conformed to the guidelines established by the National Research Council Guide for the Care and Use of Laboratory Animals.
Male Harlan Sprague Dawley rats were habituated in Smart Open Field locomotor activity test chambers (Hamilton-Kinder, San Diego, Calif.) with 16×16 photo beams to automatically record locomotor activity. […] They were monitored for an additional 30 minutes and then injected subcutaneously with vehicle or 1 mg/kg amphetamine. Animals were then monitored for an additional 60 minutes, for a total of 120 minutes. Data were expressed as changes in ambulation defined as total number of beam breaks per 5 minute interval. Terminal brain and plasma samples were collected at the end of the study for pharmacokinetic analysis.
Behavioral data were analyzed using a two-way ANOVA with main effects of treatment and time. Post hoc analysis was performed using a Dunnett's t-test with all treatment groups compared to the VAMP group using GraphPad Prism V.5.04 (GraphPad Software, San Diego, Calif.). Data were graphed using GraphPad Prism V.5.04 (GraphPad Software, San Diego, Calif.). A probability of p<0.05 was taken as the level of statistical significance. In addition, the total number of beam breaks from the amphetamine administration (65 min) to the end of the study (120 min) was calculated and graphed. Percent Reversal was calculated as follows using Microsoft Excel: In each animal, total ambulation from t=65 to t=120 was summed. The mean of each sum was calculated in the VAMP group. Then, for each animal, Percent Reversal was calculated with the following formula: Percent Reversal=100−{[(total ambulation in each animal from t=65 to t=120)/(mean of each sum from t=65 to t=120 in VAMP group)]*100}. The mean Percent Reversal, as well as the standard error, was calculated for each dose group using GraphPad Prism V5.04.

In assay [2] the target is T1, human mAChR M4 (Homo sapiens, UniProt P08173).
T1 sequence (P08173 1-479): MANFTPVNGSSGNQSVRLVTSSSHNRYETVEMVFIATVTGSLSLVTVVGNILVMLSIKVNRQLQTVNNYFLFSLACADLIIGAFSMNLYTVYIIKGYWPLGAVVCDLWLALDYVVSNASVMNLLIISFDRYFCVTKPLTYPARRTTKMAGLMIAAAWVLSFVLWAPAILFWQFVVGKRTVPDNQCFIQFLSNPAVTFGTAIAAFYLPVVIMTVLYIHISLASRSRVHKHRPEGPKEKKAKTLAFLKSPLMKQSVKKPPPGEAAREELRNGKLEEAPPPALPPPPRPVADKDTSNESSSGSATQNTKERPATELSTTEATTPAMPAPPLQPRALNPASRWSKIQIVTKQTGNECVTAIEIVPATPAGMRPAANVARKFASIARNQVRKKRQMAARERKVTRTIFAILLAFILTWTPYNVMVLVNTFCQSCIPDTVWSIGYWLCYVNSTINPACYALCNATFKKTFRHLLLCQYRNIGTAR
The assay is described as follows: mAChR M4 cell-based functional assay (calcium flux), human M4. The following applies: for EC50: Human M4 EC50, CHO-K1 hM4-Gqi5 cells, calcium flux, increase in EC20 acetylcholine response; for Emax: Human M4, % ACh maximum at 30 μM. (In general: A change in cytosolic calcium serves as a functional read-out for many receptors and channels.)

The target of assay [3] is T2, rat mAChR M4 (Rattus norvegicus, UniProt P08485).
T2 sequence (P08485 1-478): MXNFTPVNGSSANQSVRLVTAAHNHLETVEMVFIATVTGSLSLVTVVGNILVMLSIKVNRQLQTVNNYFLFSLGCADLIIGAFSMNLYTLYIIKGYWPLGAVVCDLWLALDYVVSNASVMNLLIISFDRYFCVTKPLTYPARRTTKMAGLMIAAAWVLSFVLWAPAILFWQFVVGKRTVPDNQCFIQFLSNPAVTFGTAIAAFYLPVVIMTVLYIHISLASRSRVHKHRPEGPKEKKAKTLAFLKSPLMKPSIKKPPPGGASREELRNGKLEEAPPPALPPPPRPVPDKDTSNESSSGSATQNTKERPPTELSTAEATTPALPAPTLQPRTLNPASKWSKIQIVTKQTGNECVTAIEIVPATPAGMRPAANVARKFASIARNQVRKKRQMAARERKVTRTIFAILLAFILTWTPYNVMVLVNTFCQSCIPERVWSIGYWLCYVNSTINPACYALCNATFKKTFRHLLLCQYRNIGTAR
The assay is described as follows: mAChR M4 cell-based functional assay (calcium flux), rat M4. Also noted: Emax: dose or concentration left out as unconfirmed. Conditions: for EC50: read-out: Rat M4 EC50, CHO-K1 rM4-Gqi5 cells, calcium flux, increase in EC20 acetylcholine response.

`Cc1nnc2sc(C(=O)NCc3ccc(S(=O)(=O)C(F)(F)F)cc3)c(N)c2c1C` [VU0467154, reference compound]: the “percent reversal of amphetamine-induced hyperlocomotion” value in assay [1] is recorded as 58.9%.

For `FC(F)(F)c1cnc(N2CC(Nc3ncnc4c3sc3nccnc34)C2)nc1` [Compound 20, N-(1-(5-(trifluoromethyl)pyrimidin-2-yl)azetidin-3-yl)pyrazino[2′,3′:4,5] thieno[3,2-d]pyrimidin-4-amine], the EC50 in assay [2] was more than 10 µM; in assay [3], 2.8 µM. Besides, in assay [3], the Emax was 46%.

Consider `Cc1nnc2sc3c(NC4CCC4)ncnc3c2c1C` [Compound 5, N-cyclobutyl-3,4-dimethylpyrimido[4′,5′:4,5] thieno[2,3-c]pyridazin-8-amine], for which the Emax in assay [2] amounted to 73%. For the same compound, in assay [3], the maximal effect (Emax) came to 80% and the EC50 is 0.112 µM.

Regarding `Cc1nnc2sc3c(N4CCCCC4)ncnc3c2c1C` [Compound 4, 3,4-dimethyl-8-(piperidin-1-yl)pyrimido[4′,5′:4,5]thieno [2,3-c]pyridazine], in assay [2], the Emax worked out at 44% and the EC50 came to 0.12 µM. Further, in assay [3], the Emax stood at 58% and the EC50 stood at 0.215 µM.

On to `Cc1nnc2sc3c(N4CCC(N(C)C)C4)ncnc3c2c1C` (centres unmarked) [Compound 11, 1-(3,4-dimethylpyrimido [4′,5′:4,5]thieno[2,3-c]pyridazin-8-yl)-N,N-dimethylpyrrolidin-3-amine], for which, in assay [2], the Emax worked out at 40% and the EC50 amounted to 0.257 µM. In addition, in assay [3], the Emax turned out to be 55% and the EC50 was found to be 0.326 µM.

As for `Cc1nnc2sc3c(N4CCC4)ncnc3c2c1C` [Compound 9, 8-(azetidin-1-yl)-3,4-dimethylpyrimido [4′,5′:4,5]thieno[2,3-c] pyridazine], in assay [2], the Emax stood at 68% and the EC50 was determined as 0.351 µM. Moreover, the Emax in assay [3] was 75%.

Turning to `Cc1nnc2sc3c(N4CC5CC5C4)ncnc3c2c1C` (centres unmarked) [Compound 10, 8-(3-azabicyclo[3.1.0]hexan-3-yl)-3,4-dimethylpyrimido [4′,5′:4,5]thieno[2,3-c] pyridazine], in assay [2], the Emax was 81% and the EC50 turned out to be 0.021 µM. Also, in assay [3], the Emax stood at 86% and the EC50 worked out at 0.036 µM.

With `Cc1cnc2sc3c(N4CCC4)ncnc3c2c1` [Compound 18, 4-(azetidin-1-yl)-8-methylpyrido[3′,2′:4,5] thieno[3,2-d]pyrimidine], the Emax in assay [2] amounted to 58%. Besides, in assay [3], the Emax was 51% and the EC50 came to 2.5 µM.

For `Cc1nnc2sc3c(NC4CCCCC4)ncnc3c2c1C` [Compound 2, N-cyclohexyl-3,4-dimethylpyrimido[4′,5′:4,5] thieno[2,3-c] pyridazin-8-amine], in assay [2], the Emax is 52% and the EC50 was 0.724 µM. Also, in assay [3], the Emax came to 62% and the EC50 came to 0.836 µM.

As to `COCC1CN(c2ncnc3c2sc2nnc(C)c(C)c23)C1` [Compound 14, 8-(3-(methoxymethyl)azetidin-1-yl)-3,4-dimethylpyrimido [4′,5′:4,5]thieno[2,3-c] pyridazine], the Emax in assay [2] was 62%; in assay [3], 75%.

For `Cc1nnc2sc3c(N4CC(c5ccncc5)C4)ncnc3c2c1C` [Compound 24, 3,4-dimethyl-8-(3-(pyridin-4-yl)azetidin-1-yl)pyrimido[4′,5′:4,5] thieno[2,3-c]pyridazine], in assay [2], the Emax was 62%. Besides, in assay [3], the Emax worked out at 40% and the EC50 came out at 0.185 µM.

With `COCCN(C)c1ncnc2c1sc1nnc(C)c(C)c12` [Compound 12, N-(2-methoxyethyl)-N,3,4-trimethylpyrimido [4′,5′:4,5]thieno[2,3-c] pyridazin-8-amine], in assay [2], the Emax came to 40% and the EC50 came to 0.846 µM. In assay [3], the maximal effect (Emax) came to 57% and the concentration for a half-maximal effect (EC50) came to 0.927 µM.

Regarding `Cc1nnc2sc3c(N(C)C)ncnc3c2c1C` [Compound 1, N,N,3,4-tetramethylpyrimido[4′,5′:4,5]thieno[2,3-c]pyridazin-8-amine], in assay [2], the Emax was 62% and the EC50 is 0.638 µM. Besides, in assay [3], the Emax is 79% and the concentration for a half-maximal effect (EC50) was found to be 0.724 µM.

Consider `Cc1cnc2sc3c(N4CC5(COC5)C4)ncnc3c2c1` [Compound 19, 6-(8-methylpyrido [3′,2′:4,5]thieno[3,2-d]pyrimidin-4-yl)-2-oxa-6-azaspiro[3.3]heptane], for which, in assay [2], the Emax is 36% and the EC50 amounted to 0.456 µM. Further, in assay [3], the Emax amounted to 54% and the half-maximal effective concentration (EC50) came to 1.15 µM.

Turning to `Cc1nnc2sc3c(NC4CCOCC4)ncnc3c2c1C` [Compound 3, 3,4-dimethyl-N-(tetrahydro-2H-pyran-4-yl) pyrimido[4′,5′:4,5] thieno[2,3-c]pyridazin-8-amine], in assay [2], the Emax is 45% and the EC50 is 0.446 µM. In assay [3], the Emax worked out at 60% and the EC50 was determined as 0.521 µM.
